{
  "source": "patent US12319701B2",
  "about": "“Antagonists of the muscarinic acetylcholine receptor M4” (priority 2019, dated 2025)",
  "key": {"[1]": {"target": "T1, Human M4 (Homo sapiens, UniProt P08173)", "T1 construct": "expressed in transfected cells; host or cells: CHO-K1 (ATCC), stably co-expressing chimeric G protein Gqi5", "T1 sequence (P08173 1-479)": "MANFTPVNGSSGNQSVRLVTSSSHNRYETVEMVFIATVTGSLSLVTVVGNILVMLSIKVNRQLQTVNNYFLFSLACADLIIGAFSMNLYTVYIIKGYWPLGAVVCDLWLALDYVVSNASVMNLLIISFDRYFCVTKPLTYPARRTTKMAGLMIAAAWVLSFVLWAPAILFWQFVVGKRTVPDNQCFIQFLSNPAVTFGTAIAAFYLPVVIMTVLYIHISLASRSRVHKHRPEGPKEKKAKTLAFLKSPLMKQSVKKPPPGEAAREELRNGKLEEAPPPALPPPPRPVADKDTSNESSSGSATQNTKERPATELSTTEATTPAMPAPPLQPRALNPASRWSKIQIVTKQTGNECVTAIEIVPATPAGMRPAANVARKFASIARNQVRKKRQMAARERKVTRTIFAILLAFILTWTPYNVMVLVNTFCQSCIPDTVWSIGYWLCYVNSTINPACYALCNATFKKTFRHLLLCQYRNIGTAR", "assay": "mAChR M4 cell-based functional assay (calcium flux, Fluo-4, M4/Gqi5/CHO-K1 cells)", "settings": "for remaining activity at 30 µM: CHO-K1, read-out: Human M4 Emin (%), % ACh maximum at 30 μM", "method": "Human or rat M4 cDNA, along with the chimeric G protein Gqi5, were transfected into Chinese hamster ovary (CHO-K1) cells purchased from the American Type Culture Collection using Lipofectamine2000. M4/Gqi5/CHO cells were grown in Ham's F-12 medium containing 10% heat-inactivated fetal bovine serum (FBS), 20 mM HEPES, 500 μg/mL 418 sulfate, and 200 μg/mL Hygromycin B.\nFor high throughput measurement of agonist-evoked increases in intracellular calcium, CHO-K1 cells stably expressing muscarinic receptors were plated in growth medium lacking 418 and hygromycin at 15,000 cells/20 μL/well in Greiner 384-well black-walled, tissue culture (TC)-treated, clear-bottom plates (VWR). Cells were incubated overnight at 37° C. and 5% CO2. The next day, cells were washed using an ELX 405 (BioTek) with assay buffer; the final volume was then aspirated to 20 μL. Next, 20 μL of a 2.3 μM stock of Fluo-4/acetoxymethyl ester (Invitrogen, Carlsbad, CA), prepared as a 2.3 mM stock in DMSO and mixed in a 1:1 ratio with 10% (w/v) Pluronic F-127 and diluted in assay buffer, was added to the wells and the cell plates were incubated for 50 min at 37° C. and 5% CO2. Dye was removed by washing with the ELX 405 and the final volume was aspirated to 20 μL. Compound master plates were formatted in a 10 point concentration-response curve (CRC) format (1:3 dilutions) in 100% DMSO with a starting concentration of 10 or 1 mM using a BRAVO liquid handler (Agilent). Test compound CRCs were then transferred to daughter plates (240 nL) using the Echo acoustic plate reformatter (Labcyte, Sunnyvale, CA) and then diluted into assay buffer (40 μL) to a 2× stock using a Thermo Fisher Combi (Thermo Fisher Scientific, Waltham, MA).\nCalcium flux was measured using the Functional Drug Screening System (FDSS) 6000 or 7000 (Hamamatsu Corporation, Tokyo, Japan) as an increase in the fluorescent static ratio. Compounds were applied to cells (20 μL, 2×) using the automated system of the FDSS at 2 seconds into the protocol and the data were collected at 1 Hz. At 143 s, 10 μL of an EC20 concentration of the muscarinic receptor agonist acetylcholine was added (5×), followed by the addition of 12 μL of an EC80 concentration of acetylcholine at the 268 s time point (5×). Agonist activity was analyzed as a concentration-dependent increase in calcium mobilization upon compound addition. Positive allosteric modulator activity was analyzed as a concentration-dependent increase in the EC20 acetylcholine response. Antagonist activity was analyzed as a concentration-dependent decrease in the ECK) acetylcholine response; for the purposes of the tables herein, an IC50 (inhibitory concentration 50) was calculated as a concentration-dependent decrease of the response elicited by an ECK) concentration of acetylcholine. Concentration-response curves were generated using a four-parameter logistical equation in XLFit curve fitting software (IDBS, Bridgewater, NJ) for Excel (Microsoft, Redmond, WA) or Prism (GraphPad Software, Inc., San Diego, CA) or the Dotmatics software platform (Dotmatics, Bishop's Stortford, UK).\nCompounds were synthesized as described above. Activity (IC50 and Emin) was determined in the mAChR M4 cell-based functional assay as described above and the data are shown in Table 2."}, "[2]": {"system": "catalepsy induced by the DA receptor antagonist haloperidol", "assay": "Reversal of haloperidol-induced catalepsy by scopolamine in mice", "type": "in vivo", "excerpt": "Furthermore, haloperidol-induced catalepsy, a model of parkinsonian motor disability, is reduced in M4 knockout mice as compared to wild-type controls. […] The reversal by scopolamine was uncommonly robust and more pronounced than we observe with agents targeting a number of other targets being evaluated for potential antiparkinsonian effects, including metabotropic glutamate (mGlu) receptors mGlu4 or mGlu5, A2A adenosine receptors, and NMDA receptors. […] Taken together with the extensive studies of M4 modulation of basal ganglia and motor function, these studies provide compelling evidence that M4 is the dominant mAChR subtype involved in the antiparkinsonian effects of non-selective mAChR antagonists and provide support for discovery and development of selective M4 antagonists for treatment of neurodegenerative disease such as PD, dystonia, tardive dyskinesia and other movement disorders."}},
  "data": [
    {"compound": "[2H]C([2H])(C1CCOCC1)N1C[C@H]2C[C@H](Nc3nnc(-c4cc(F)ccc4C)c4sccc34)C[C@H]2C1", "note": "[compound 19, 7-(5-fluoro-2-methylphenyl)-N-((3aR,5s,6aS)-2-((tetrahydro-2H-pyran-4-yl)methyl-d2)octahydrocyclopenta[c]pyrrol-5-yl)thieno[2,3-d]pyridazin-4-amine]", "values": [
      {"measurement": "IC50", "setting": "[1]", "value": 1.4, "unit": "nM"},
      {"measurement": "remaining activity at 30 µM", "setting": "[1]", "value": 3, "unit": "%"}
    ]},
    {"compound": "FC1(F)CCN(c2nnc(N[C@H]3C[C@@H]4CN(CC5CCOCC5)C[C@@H]4C3)c3ccsc23)CC1", "note": "[compound 20, 7-(4,4-difluoropiperidin-1-yl)-N-((3aR,5s,6aS)-2-((tetrahydro-2H-pyran-4-yl)methyl)octahydrocyclopenta[c]pyrrol-5-yl)thieno[2,3-d]pyridazin-4-amine]", "values": [
      {"measurement": "IC50", "setting": "[1]", "value": 5.64, "unit": "nM"},
      {"measurement": "remaining activity at 30 µM", "setting": "[1]", "value": 3, "unit": "%"}
    ]},
    {"compound": "C[C@H]1CCCN(c2nnc(N[C@H]3C[C@@H]4CN(CC5CCOCC5)C[C@@H]4C3)c3ccsc23)C1", "note": "[compound 21, 7-((S)-3-methylpiperidin-1-yl)-N-((3aR,5s,6aS)-2-((tetrahydro-2H-pyran-4-yl)methyl)octahydrocyclopenta[c]pyrrol-5-yl)thieno[2,3-d]pyridazin-4-amine]", "values": [
      {"measurement": "IC50", "setting": "[1]", "value": 15.1, "unit": "nM"},
      {"measurement": "remaining activity at 30 µM", "setting": "[1]", "value": 4, "unit": "%"}
    ]},
    {"compound": "FC1(F)CCN(c2nnc(N[C@H]3C[C@@H]4CN(CC5CCOCC5)C[C@@H]4C3)c3c2CCCC3)CC1", "note": "[compound 22, 4-(4,4-difluoropiperidin-1-yl)-N-((3aR,5s,6aS)-2-((tetrahydro-2H-pyran-4-yl)methyl)octahydrocyclopenta[c]pyrrol-5-yl)-5,6,7,8-tetrahydrophthalazin-1-amine]", "values": [
      {"measurement": "IC50", "setting": "[1]", "value": 14.6, "unit": "nM"},
      {"measurement": "remaining activity at 30 µM", "setting": "[1]", "value": 3, "unit": "%"}
    ]},
    {"compound": "Fc1ccc(F)c(-c2nnc(N[C@H]3C[C@@H]4CN(CC5CCOCC5)C[C@@H]4C3)c3c2CCCC3)c1", "note": "[compound 23, 4-(2,5-difluorophenyl)-N-((3aR,5s,6aS)-2-((tetrahydro-2H-pyran-4-yl)methyl)octahydrocyclopenta[c]pyrrol-5-yl)-5,6,7,8-tetrahydrophthalazin-1-amine]", "values": [
      {"measurement": "IC50", "setting": "[1]", "value": 5.43, "unit": "nM"},
      {"measurement": "remaining activity at 30 µM", "setting": "[1]", "value": 3, "unit": "%"}
    ]},
    {"compound": "Fc1ccccc1-c1nnc(N[C@H]2C[C@@H]3CN(CC4CCOCC4)C[C@@H]3C2)c2c1CCCC2", "note": "[compound 24, 4-(2-fluorophenyl)-N-((3aR,5s,6aS)-2-((tetrahydro-2H-pyran-4-yl)methyl)octahydrocyclopenta[c]pyrrol-5-yl)-5,6,7,8-tetrahydrophthalazin-1-amine]", "values": [
      {"measurement": "IC50", "setting": "[1]", "value": 6.2, "unit": "nM"},
      {"measurement": "remaining activity at 30 µM", "setting": "[1]", "value": 3, "unit": "%"}
    ]},
    {"compound": "Fc1cccc(-c2nnc(N[C@H]3C[C@@H]4CN(CC5CCOCC5)C[C@@H]4C3)c3c2CCCC3)c1", "note": "[compound 25, 4-(3-fluorophenyl)-N-((3aR,5s,6aS)-2-((tetrahydro-2H-pyran-4-yl)methyl)octahydrocyclopenta[c]pyrrol-5-yl)-5,6,7,8-tetrahydrophthalazin-1-amine]", "values": [
      {"measurement": "IC50", "setting": "[1]", "value": 9.04, "unit": "nM"},
      {"measurement": "remaining activity at 30 µM", "setting": "[1]", "value": 3, "unit": "%"}
    ]},
    {"compound": "Fc1ccc(-c2nnc(N[C@H]3C[C@@H]4CN(CC5CCOCC5)C[C@@H]4C3)c3c2CCCC3)cc1", "note": "[compound 26, 4-(4-fluorophenyl)-N-((3aR,5s,6aS)-2-((tetrahydro-2H-pyran-4-yl)methyl)octahydrocyclopenta[c]pyrrol-5-yl)-5,6,7,8-tetrahydrophthalazin-1-amine]", "values": [
      {"measurement": "IC50", "setting": "[1]", "value": 58.9, "unit": "nM"},
      {"measurement": "remaining activity at 30 µM", "setting": "[1]", "value": 3, "unit": "%"}
    ]},
    {"compound": "[2H]C([2H])(C1CCOCC1)N1C[C@H]2C[C@H](Nc3nnc(-c4cc(F)ccc4F)c4ccccc34)C[C@H]2C1", "note": "[compound 27, 4-(2,5-difluorophenyl)-N-((3aR,5s,6aS)-2-((tetrahydro-2H-pyran-4-yl)methyl-d2)octahydrocyclopenta[c]pyrrol-5-yl)phthalazin-1-amine]", "values": [
      {"measurement": "IC50", "setting": "[1]", "value": 12, "unit": "nM"},
      {"measurement": "remaining activity at 30 µM", "setting": "[1]", "value": 3, "unit": "%"}
    ]},
    {"compound": "CN1[C@@H]2C[C@@H](OC(=O)[C@H](CO)c3ccccc3)C[C@H]1[C@@H]1O[C@@H]12", "note": "[scopolamine]", "values": [
      {"measurement": "Reduction of haloperidol-induced catalepsy", "setting": "[2]; M4 KO mice", "value": "ineffective in reducing catalepsy"},
      {"measurement": "Reversal of haloperidol-induced catalepsy", "setting": "[2]; WT mice", "value": "completely reversed"}
    ]}
  ]
}
